Test results taken from paper PMC8560896 (Frontiers in Chemistry, 2021).
pIC50: −log10 of the molar value. “Also recorded” adds a separate entry of the source.

Columns and labels:
[1] = Cupric ion reducing antioxidant capacity (CUPRAC); details: for TEAC: Supplementary Table 1, ε of compound divided by ε of Trolox; for CUPRAC: Trolox equivalent, 2% M-β-CD, A450 after 40 min
Protocol: The CUPRAC test was performed as reported by [Ozyürek et al. (2008)] on the new compounds in the unacetylated form.
CuCl2 solution 10 mM, was prepared by dissolving […] CuCl2 in water, and diluting to 250 ml. Neocuproine (Nc) solution 7.5 mM, was prepared by dissolving 15 mg of neocuproine in 10 ml of absolute EtOH. Ammonium acetate 1.0 M was prepared by dissolving 19.27 g of NH4Ac in 250 ml of water. The cyclodextrin (2% M-β-CD) stock solution was prepared in water-acetone (9:1 v/v). The standard solution of Trolox 1 mM was prepared in 2% M-β-CD. All working solutions of antioxidant 1 mM were freshly prepared in 2% M-β-CD.
1 ml of Cu(II) + 1 ml of Nc + 1 ml of NH4Ac buffer + x mL of antioxidant solution + (1.1 − x) 2% M-β-CD in 1:9 water–acetone mixture (v/v); total volume = 4.1 ml, measure A 450 against a reagent blank after 40 min of reagent addition at room temperature.
The Trolox equivalent antioxidant capacity (TEAC) is defined as the millimolar concentration of a Trolox solution having the antioxidant capacity equivalent to a 1.0 mM solution of the substance under investigation. The […] values were simply calculated by dividing the molar absorptivity ε of the species under investigation by that of Trolox under corresponding conditions. The concentration linearity ranges for all the antioxidants tested are reported in the Supplementary Material (See Supplementary Table S1).

[2] = Oxygen radical absorbance capacity (ORAC) by fluorescence; details: for ORAC: means ± SEM of three independent observations, sample 10 μM in 7% RMCD solution
Protocol: The measurement temperature was set at 37°C. A regression equation was built by comparing the net area under the FL decay curve and the Trolox concentration according to the following equation: Y(µM Trolox)=a+bX(AUC−n) and the final ORACFL values were expressed as Trolox equivalents (μmol g^−1).

[3] = test system: SH-SY5Y cells; assay: ROS measurement (H2DCF-DA, flow cytometry) after H2O2 insult; assay type: cell-based, human; details: for ROS measurement 250 nM / ROS measurement 500 nM / ROS measurement 1 μM / ROS measurement 10 μM: fluorescence relative to control = 1, H2O2 (100 μM) alone 6.31, 24 h + 3 h; for ROS measurement 250 nM: hybrid 250 nM; for ROS measurement 500 nM: hybrid 500 nM; for ROS measurement 1 μM: hybrid 1 μM; for ROS measurement 10 μM: hybrid 10 μM
Protocol: H2DCF-DA is a molecule that easily diffuses into cells and, through intracellular esterases, is split into H2DCF following the loss of the acetate group. H2DCF remains trapped within cells and is oxidized by intracellular ROS to form the highly fluorescent DCF compound. Spectrofluorimetric quantification of the DCF probe, provides the content of the ROS in the cell.
[…]. Subsequently, the growth medium was replaced with a fresh phenol red-free medium containing H2DCF-DA (25 μM). After 30 min at 37°C, the cells were washed twice to remove the extracellular H2DCF-DA, centrifuged, re-suspended in PBS, exposed to H2O2 (100 μM, 30 min) and the fluorescence was evaluated by flow cytometric analysis using a FACS Accury laser flow cytometer (Becton Dickinson). The results were expressed by setting the control equal to 1 and reporting all other values. H2O2 alone was used as a positive control.

[4] = test system: SH-SY5Y cells; assay: MTT cell viability assay; assay type: cell-based, human; details: for Effect on cell viability: 0.25–100 μM, 24 h; for pIC50: Homo sapiens, neurotoxic concentration, SH-SY5Y
Excerpt: The MTT test is based on the observation that live cells can reduce the water-soluble yellow tetrazolium salt [3-(4,5-dimethylthiazol-2-yl)-2,5-diphenyltetrazolium bromide] into water-insoluble blue/magenta formazan crystals, by dehydrogenase of the active mitochondria. Dissolved formazan crystals can be quantified using a spectrophotometer and the values obtained are in direct correlation to the number of metabolically active cells. For this reason, this colorimetric assay is used to evaluate cell viability.
The MTT assay was performed as reported in literature ([Corasaniti et al., 2007]). […].
The optical density was measured at wavelengths of 540 and 690 nm using a spectrophotometer (X MARK Spectrophotometer Microplate Bio-Rad).

[5] = test system: SH-SY5Y cells; assay: MTT cell viability after H2O2 damage (neuroprotection); assay type: cell-based, human; details: hybrids 21 h, then H2O2 100 μM 3 h; vs hydrogen peroxide alone
[6] = Metal-chelating properties by UV-vis spectroscopy; details: compound 75 μM with CuSO4, FeSO4, FeCl3 or ZnCl2 150 μM in MeOH, 30 min
Protocol: The complexing studies for all the unprotected hybrids were carried out through a UV–vis spectroscopy assay with the wavelength ranging from 200 to 400 nm. The unprotected hybrids were dissolved in a 5% DMSO methanolic solution (3 mM). This solution was diluted with methanol to 150 µM. 2 ml of the 150 µM solution were mixed with 2 ml of methanol to record the spectra of the hybrids alone, or with 2 ml of the salts solution (300 µM). Then, the absorption spectra of the antioxidants (75 μM) alone or in the presence of CuSO4, FeSO4, FeCl3 or ZnCl2 (150 μM) mixed for 30 min in methanol at room temperature were recorded in a 1 cm quartz cell.

Structure (SMILES)	TEAC [1]	CUPRAC [1]	ORAC [2] [µmol trolox l^−1]	ROS measurement 250 nM [3]	ROS measurement 500 nM [3]	ROS measurement 1 μM [3]	ROS measurement 10 μM [3]	Effect on cell viability [4]	pIC50 [4]	Protective effect on cell viability against H2O2 damage [5]	Metal chelating activity [6]	Reduction of ROS amount (in words) ([3]; H2O2 100 μM as toxic insult)	Reduction of ORAC antioxidant capacity compared to HT1 [2] [times]
OCCc1ccc(O)c(O)c1 [HT, hydroxytyrosol, reference compound]	2,82	2.82 (mmol of trolox)/(mmol of tested compound)	38.8 ± 4.4	–	–	–	–	–	–	–	–	–	–
CC(=O)Oc1ccc(CCOC(=O)C2CCN(Cc3ccccc3)CC2)cc1 [HT4a]	–	–	–	2.34	2.77	2.94	3.01	reduction in cell viability was found for compounds HT3a and HT4a at concentrations higher than 10 μM	< 5.00	statistically significant increase in cell viability	–	–	–
O=C(OCCc1ccc(O)cc1)C1CCN(Cc2ccccc2)CC1 [HT4]	0,99	0.99 (mmol of trolox)/(mmol of tested compound)	23.0 ± 2.0	3.9	3.2	3.64	3.67	–	< 4.60	–	–	–	–
CC(=O)Oc1ccc(CCOC(=O)C2CCN(Cc3ccccc3)CC2)cc1OC(C)=O [HT1a]	–	–	–	2.99	2.63	2.51	2.66	–	< 4.30	–	–	–	–
O=C(OCCc1ccc(O)c(O)c1)C1CCN(Cc2ccccc2)CC1 [HT1]	3,36	3.36 (mmol of trolox)/(mmol of tested compound)	21.2 ± 1.6	6.18	5.25	5.47	5.49	–	4.30	–	able to chelate only Copper (II) efficiently; also recorded: showed metal chelating properties	–	–
O=C(OCCc1cc(O)c(O)cc1[N+](=O)[O-])C1CCN(Cc2ccccc2)CC1 [HT2]	2,77	2.77 (mmol of trolox)/(mmol of tested compound)	7.6 ± 0.2	2.21	1.97	1.12	1.38	–	< 4.30	statistically significant increase in cell viability; also recorded: able to attenuate cell injury against oxidative stress	chelates all the metal cations; also recorded: showed metal chelating properties	the more effective one to reduce the ROS amount to the physiological values	~3
COc1cc(CCOC(=O)C2CCN(Cc3ccccc3)CC2)ccc1OC(C)=O [HT3a]	–	–	–	2.27	1.94	1.58	2.13	reduction in cell viability was found for compounds HT3a and HT4a at concentrations higher than 10 μM	< 5.00	statistically significant increase in cell viability; also recorded: able to attenuate cell injury against oxidative stress	–	–	–
COc1cc(CCOC(=O)C2CCN(Cc3ccccc3)CC2)ccc1O [HT3]	1,80	1.80 (mmol of trolox)/(mmol of tested compound)	45.2 ± 3.6	3.68	2.91	2.18	2.76	–	< 4.60	–	–	–	–
Cc1c(C)c2c(c(C)c1O)CCC(C)(C(=O)O)O2 (stereo not shown) [Trolox, reference compound]	1	1 (mmol of trolox)/(mmol of tested compound)	–	–	–	–	–	–	–	–	–	–	–
